Assays:
[1] = system: STAT1 (phosphorylated at Tyr701) in NCI-H1373 cells; assay: Phospho-STAT1 (Tyr701) LANCE Ultra TR-FRET Detection Assay; format: cell-based; conditions: Homo sapiens, 48 hours, induction of pSTAT1, normalized to 10 uM positive control and DMSO, 4-parameter fit, read-out: NH1373 pSTAT1 EC50
Protocol: Phospho-STAT1 (Tyr701 LANCE Ultra TR-FRET Detection Assay
LANCE Ultra phospho-STAT1 (Tyr701) kits available from Perkin Elmer are designed for the detection of phosphorylated STAT1 in cell lysates using a simple, homogeneous LANCE Ultra sandwich assay (Cat. #TRF4028M). This assay is intended for assessing compound induction of endogenous levels of cellular STAT1 (phosphorylated at Tyr701) in NCI-H1373 cells. The NCI-H1373 cells are cultured in RPMI 1640 media containing 10% heat inactivated FBS, GlutaMAX, 1% Penicillin-Streptomycin. An Echo acoustic liquid handler is used to transfer 60 nanoliters of compound dilutions using the Echo Qualified, 384-well polypropylene microplate clear flat bottom source plates into a Greiner (#781080) cell culture microplate. NCI-H1373 cells are seeded into these compound-spotted culture plates at 30,000 cells/well in a 60 uL volume in growth media. The plates are incubated in a 5% CO2 humidified incubator at 37° C. for 48 hours. […] Briefly, 20 μL of supplemented lysis buffer is added to each well and allowed to shake for 1 hour at 400 rpm. Next, 5 ul of remixed antibody solutions (vol/vol) prepared in detection buffer are added to each well and allowed to incubate at room temperature overnight. After spinning the plate down at 300 rpm for […], the plate is read on an EnVision plate reader set up for Eu3+ Cryptate and fluorescence emission is measured at two different wavelengths (665 nm and 620 nm).

PARP7 = target: T1, PARP7 (Homo sapiens, UniProt Q7Z3E1); assay: biochemical;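 further: MSD light signal quantifying PARP7 captured by a plate-immobilized probe, read after 1.5 h equilibration plus 1.5 h with SULFO-TAG anti-GST antibody at room temperature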
T1 sequence (Q7Z3E1 1-657): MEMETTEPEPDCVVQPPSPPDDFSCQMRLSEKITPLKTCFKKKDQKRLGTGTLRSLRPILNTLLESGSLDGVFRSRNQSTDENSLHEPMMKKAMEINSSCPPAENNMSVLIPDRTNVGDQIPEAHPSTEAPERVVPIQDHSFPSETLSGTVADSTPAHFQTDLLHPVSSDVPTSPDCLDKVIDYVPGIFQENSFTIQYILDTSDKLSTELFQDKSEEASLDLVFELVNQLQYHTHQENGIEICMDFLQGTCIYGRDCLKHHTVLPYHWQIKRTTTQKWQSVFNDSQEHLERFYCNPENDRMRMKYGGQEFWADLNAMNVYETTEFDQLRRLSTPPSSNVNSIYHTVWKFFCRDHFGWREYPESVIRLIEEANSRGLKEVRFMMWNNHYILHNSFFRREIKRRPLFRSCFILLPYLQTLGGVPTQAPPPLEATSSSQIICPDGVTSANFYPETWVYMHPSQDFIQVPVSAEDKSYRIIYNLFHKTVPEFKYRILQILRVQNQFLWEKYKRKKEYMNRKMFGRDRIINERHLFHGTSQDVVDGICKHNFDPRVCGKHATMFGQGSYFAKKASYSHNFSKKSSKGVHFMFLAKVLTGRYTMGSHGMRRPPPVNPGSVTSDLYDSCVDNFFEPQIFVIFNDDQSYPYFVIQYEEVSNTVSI
Protocol: Probe Displacement Assay for PARP7 Displacement of a biotinylated probe (RBN011147; Wigle et al., Cell Chemical Biology, 2020, pp. 877-887) from the PARP7 NAD+-binding site was measured in vitro using a Mesoscale Discovery electrochemiluminescent assay. […] Next, 10 μl of 10 nM PARP7 protein incubated for 1 hour at room temperature with a dose response curve of each test compound in a Greiner LDV polypropylene plate (#781201) is added to the MSD plate containing the immobilized probe. The interaction is allowed to reach equilibrium for 1.5 hours, and then 10 ul of SULFO-TAG labeled anti-GST antibody (Cat #R32AA-1) is added to each well and allowed to incubate for an additional 1.5 hours at room temperature. Finally, 10 μl of MSD read buffer T (4×, Cat. #R92C-1) is added to each well using a Bravo liquid handler to prevent air bubbles in the wells, and the plates are subsequently read in an MSD instrument. Light intensity is then measured to quantify the amount of PARP7 bound to the immobilized probe on the plate.

Structure (SMILES) | EC50 [1] [nM] | IC50 (PARP7) [nM]
O=C([C@@H]1C[C@@H]1CNc1cc(C(F)(F)F)c(=O)[nH]n1)N1CCN(c2ncc(C(F)(F)F)cn2)CC1 (racemic) [Example 24, Cis-(+)-4-(trifluoromethyl)-6-(((2-(4-(5-(trifluoromethyl)pyrimidin-2-yl)piperazine-1-carbonyl)cyclopropyl)methyl)amino)pyridazin-3(2H)-one] | 2940 | 1.02
O=C(CCC[C@@H]1CCCc2c1n[nH]c(=O)c2C(F)(F)F)N1CCN(c2ncc(C(F)(F)F)cn2)CC1 (single isomer, unassigned) [Example 76] | 37.8 | 0.225
O=C(CCC[C@H]1CCCc2c1n[nH]c(=O)c2C(F)(F)F)N1CCN(c2ncc(C(F)(F)F)cn2)CC1 (single isomer, unassigned) [Example 77] | 523 | 1.41
O=C(CCCCc1cc(C(F)(F)F)c(=O)[nH]n1)N1CCN(c2ncc(C(F)(F)F)cn2)CC1 [Example 1, 6-(5-oxo-5-(4-(5-(trifluoromethyl)pyrimidin-2-yl)piperazin-1-yl)pentyl)-4-(trifluoromethyl)pyridazin-3(2H)-one] | 60.6 | 0.288
O=C(CCCCCc1cc(C(F)(F)F)c(=O)[nH]n1)N1CCN(c2ncc(C(F)(F)F)cn2)CC1 [Example 2, 6-(6-oxo-6-(4-(5-(trifluoromethyl)pyrimidin-2-yl)piperazin-1-yl)hexyl)-4-(trifluoromethyl)pyridazin-3(2H)-one] | ≥ 10000 | 
O=C(CCc1ccccc1-c1cc(C(F)(F)F)c(=O)[nH]n1)N1CCN(c2ncc(C(F)(F)F)cn2)CC1 [Example 3, 6-(2-(3-oxo-3-(4-(5-(trifluoromethyl)pyrimidin-2-yl)piperazin-1-yl)propyl)phenyl)-4-(trifluoromethyl)pyridazin-3(2H)-one] | ≥ 10000 | 
O=C(Cc1ccccc1-c1cc(C(F)(F)F)c(=O)[nH]n1)N1CCN(c2ncc(C(F)(F)F)cn2)CC1 [Example 4, 6-(2-(2-oxo-2-(4-(5-(trifluoromethyl)pyrimidin-2-yl)piperazin-1-yl)ethyl)phenyl)-4-(trifluoromethyl)pyridazin-3(2H)-one] | ≥ 10000 | 36.3
O=C(CCCc1ccccc1-c1cc(C(F)(F)F)c(=O)[nH]n1)N1CCN(c2ncc(C(F)(F)F)cn2)CC1 [Example 5, 6-(2-(4-oxo-4-(4-(5-(trifluoromethyl)pyrimidin-2-yl)piperazin-1-yl)butyl)phenyl)-4-(trifluoromethyl)pyridazin-3(2H)-one] | ≥ 10000 | 
O=C(CCc1cc(C(F)(F)F)c(=O)[nH]n1)N1CCN(c2ncc(C(F)(F)F)cn2)CC1 [Example 7, 6-(3-oxo-3-(4-(5-(trifluoromethyl)pyrimidin-2-yl)piperazin-1-yl)propyl)-4-(trifluoromethyl)pyridazin-3(2H)-one] | 349 | 0.958
CC(C)(CCCc1cc(C(F)(F)F)c(=O)[nH]n1)C(=O)N1CCN(c2ncc(C(F)(F)F)cn2)CC1 [Example 10, 6-(4,4-dimethyl-5-oxo-5-(4-(5-(trifluoromethyl)pyrimidin-2-yl)piperazin-1-yl)pentyl)-4-(trifluoromethyl)pyridazin-3(2H)-one] | ≥ 10000 | 
O=C(c1cccc(Oc2cc(C(F)(F)F)c(=O)[nH]n2)c1)N1CCN(c2ncc(C(F)(F)F)cn2)CC1 [Example 35, 4-(trifluoromethyl)-6-(3-(4-(5-(trifluoromethyl)pyrimidin-2-yl)piperazine-1-carbonyl)phenoxy)pyridazin-3(2H)-one] | ≥ 10000 | 
O=C(CCCNc1c[nH]c(=O)c(C(F)(F)F)c1)N1CCN(c2ncc(C(F)(F)F)cn2)CC1 [Example 41, 5-((4-oxo-4-(4-(5-(trifluoromethyl)pyrimidin-2-yl)piperazin-1-yl)butyl)amino)-3-(trifluoromethyl)pyridin-2(1H)-one] | ≥ 10000 | 
O=C([C@H]1CN(c2cc(C(F)(F)F)c(=O)[nH]n2)CCO1)N1CCN(c2ncc(C(F)(F)F)cn2)CC1 [Example 45, (R)-4-(trifluoromethyl)-6-(2-(4-(5-(trifluoromethyl)pyrimidin-2-yl)piperazine-1-carbonyl)morpholino)pyridazin-3(2H)-one] | ≥ 10000 | 
O=c1[nH]nc(N[C@]23CO[C@](C(=O)N4CCN(c5ncc(C(F)(F)F)cn5)CC4)(C2)C3)cc1C(F)(F)F [Example 46, 5-(trifluoromethyl)-3-[[1-[4-[5-(trifluoromethyl)pyrimidin-2-yl]piperazine-1-carbonyl]-2-oxabicyclo[2.1.1]hexan-4-yl]amino]-1H-pyridazin-6-one] | ≥ 10000 | 
O=c1[nH]nc(N[C@]23CC[C@](C(=O)N4CCN(c5ncc(C(F)(F)F)cn5)CC4)(C2)C3)cc1C(F)(F)F [Example 48, 5-(trifluoromethyl)-3-[[4-[4-[5-(trifluoromethyl)pyrimidin-2-yl]piperazine-1-carbonyl]-1-bicyclo[2.1.1]hexanyl]amino]-1H-pyridazin-6-one] | ≥ 10000 | 
O=c1[nH]nc(NCC2(N3CCN(c4ncc(C(F)(F)F)cn4)CC3)COC2)cc1C(F)(F)F [Example 59, 5-(trifluoromethyl)-3-[[3-[4-[5-(trifluoromethyl)pyrimidin-2-yl]piperazin-1-yl]oxetan-3-yl]methylamino]-1H-pyridazin-6-one] | ≥ 10000 | 
O=C([C@H]1CC[C@@H](Nc2cc(C(F)(F)F)c(=O)[nH]n2)C1)N1CCN(c2ncc(C(F)(F)F)cn2)CC1 [Example 63, 5-(trifluoromethyl)-3-[[(1R,3S)-3-[4-[5-(trifluoromethyl)pyrimidin-2-yl]piperazine-1-carbonyl]cyclopentyl]amino]-1H-pyridazin-6-one] | ≥ 10000 | 
C[C@H](Nc1cc(C(F)(F)F)c(=O)[nH]n1)C(=O)N1CCN(c2ncc(C(F)(F)F)cn2)CC1 [Example 64, 3-[[(1S)-1-methyl-2-oxo-2-[4-[5-(trifluoromethyl)pyrimidin-2-yl]piperazin-1-yl]ethyl]amino]-5-(trifluoromethyl)-1H-pyridazin-6-one] | 335 | 
O=C([C@H]1CC[C@H](Nc2cc(C(F)(F)F)c(=O)[nH]n2)C1)N1CCN(c2ncc(C(F)(F)F)cn2)CC1 [Example 65, 5-(trifluoromethyl)-3-[[(1S,3S)-3-[4-[5-(trifluoromethyl)pyrimidin-2-yl]piperazine-1-carbonyl]cyclopentyl]amino]-1H-pyridazin-6-one] | ≥ 10000 | 
C[C@@H](Nc1cc(C(F)(F)F)c(=O)[nH]n1)C(=O)N1CCN(c2ncc(C(F)(F)F)cn2)CC1 [Example 66, 3-[[(1R)-1-methyl-2-oxo-2-[4-[5-(trifluoromethyl)pyrimidin-2-yl]piperazin-1-yl]ethyl]amino]-5-(trifluoromethyl)-1H-pyridazin-6-one] | ≥ 10000 | 
O=C(C[C@@H]1CCc2c1n[nH]c(=O)c2C(F)(F)F)N1CCN(c2ncc(C(F)(F)F)cn2)CC1 [Example 80, (S)-7-(2-oxo-2-(4-(5-(trifluoromethyl)pyrimidin-2-yl)piperazin-1-yl)ethyl)-4-(trifluoromethyl)-2,5,6,7-tetrahydro-3H-cyclopenta[c]pyridazin-3-one] | 429 | 
O=C(C[C@H]1CCc2c1n[nH]c(=O)c2C(F)(F)F)N1CCN(c2ncc(C(F)(F)F)cn2)CC1 [Example 81, (R)-7-(2-oxo-2-(4-(5-(trifluoromethyl)pyrimidin-2-yl)piperazin-1-yl)ethyl)-4-(trifluoromethyl)-2,5,6,7-tetrahydro-3H-cyclopenta[c]pyridazin-3-one] | ≥ 10000 | 

Reference: patent US20230183216A1, “PYRIDIZIN-3(2H)-ONE DERIVATIVES” (Gilead Sciences, Inc., priority 2021, published 2023)
